# Key:
# JIMT-1 = test: In vitro proliferation inhibition of small molecule payloads, CTG, 6 days (3.2); format: cell-based; conditions: Homo sapiens, JIMT-1, 144 h, read-out: JIMT-1 IC50
# Procedure: (§1) To detect the in vitro proliferation inhibitory activity of the drug compounds on NCI-N87, JIMT-1, and MBA-MB-231 tumor cells. Cells were treated with different concentrations of the compounds in vitro, and after 6 days of culture, cell proliferation was detected using the CTG (CellTiter-Glo® Luminescent Cell Viability Assay, Promega, Cat. No.: G7558) reagent. The IC50 value was used to assess the in vitro activity of the compounds.
# 1. Cell culture: NCI-N87, JIMT-1, and MBA-MB-231 cells were cultured in RPMI-1640 medium containing 10% FBS.
# 2. Cell preparation: NCI-N87, JIMT-1, and MBA-MB-231 cells in the logarithmic growth phase were washed once with PBS, then digested with 2-3 mL of trypsin for 2-3 minutes. […]
# (§2) 7. Plate reading operation: The 96-well cell culture plate was placed in a microplate reader, and the chemiluminescence was measured with the microplate reader.
# (§3) Data analysis: The data were processed and analyzed using Microsoft Excel and GraphPad Prism 5.
# 8. Data analysis: The cell viability was calculated using the formula: Vsample/Vvehicle control x 100% where Vsample represents the reading from the drug-treated group, and Vvehicle control represents the average value of the vehicle control group. GraphPad Prism software was used to plot the S-shaped dose-viability curve using a nonlinear regression model, and the IC50 values were calculated.
# NCI-N87 = test: In vitro proliferation inhibition of small molecule payloads, CTG, 6 days (3.3); format: cell-based; conditions: Homo sapiens, NCI-N87, 144 h, read-out: Abs-IC50 NCI-N87
# Procedure: as §1, with “NCI-N87” for “NCI-N87, JIMT-1,”, “Colo205” for “MBA-MB-231”
# (§4) 1. Cell culture: NCI-N87 and Colo205 cells were cultured in RPMI-1640 medium containing 10% FBS.
# (§5) 2. Cell preparation: NCI-N87 and Colo205 cells in the logarithmic growth phase were washed once with PBS, then digested with 2-3 mL of trypsin for 2-3 minutes. Once the cells were fully digested, 10-15 mL of cell culture medium was added to wash off the digested cells. The mixture was then centrifuged at 1000 rpm for 5 minutes, then the supernatant was discarded, and the cells were resuspended in 10-20 mL of cell culture medium to prepare a single-cell suspension.
# (§6) 3. Cell plating: The single-cell suspension of NCI-N87 and Colo205 was mixed well, and the density of viable cells was adjusted to 6×10^4 cells/mL using a cell culture medium. The density-adjusted cell suspension was mixed well and added to a 96-well cell culture plate at 50 μL per well. The culture plate was incubated in an incubator for 18 hours (37° C., 5% CO2).
# (§7) 4. Compound preparation: The compounds were dissolved in DMSO to prepare stock solutions with an initial concentration of 10 mM.
# (§8) Eight concentrations of the small molecule compounds were prepared: 300, 100, 30, 10, 3, 1, 0.3, and 0.1 nM.
# (§9) 5. Sample addition operation: The prepared samples at different concentrations were added to a culture plate, with two replicate wells for each sample. The culture plate was incubated in an incubator for 6 days (37° C., 5% CO2).
# 6. […]
# as §2, §3
# Colo205 = test: as above; format: cell-based; conditions: Homo sapiens, COLO 205, 144 h, read-out: Abs-IC50 Colo205
# Procedure: as §1, with “NCI-N87” for “NCI-N87, JIMT-1,”, “Colo205” for “MBA-MB-231”
# as §4, §5, §6, §7, §8, §9
# 6. […]
# as §2, §3
# advanced liver cancer [1] = conditions: patients with high GPC3 expression; cited from earlier work
# advanced liver cancer [2] = conditions: Phase II; cited from earlier work
molecule,measurement,setting,value
CC[C@@]1(O)C(=O)OCc2c1cc1n(c2=O)Cc2c-1nc1cc(F)c(C)c3c1c2[C@@H](NC(=O)CCN)CC3 [Reference Example 1],IC50,JIMT-1,36.2 nM
CC[C@@]1(O)C(=O)OCc2c1cc1n(c2=O)Cc2c-1nc1cc(F)c(C)c3c1c2[C@@H](NC(=O)CCO)CC3 [Preparation Example 8],IC50,NCI-N87,15.1 nM
"CC[C@@]1(O)C(=O)OCc2c1cc1n(c2=O)Cc2c-1nc1cc(F)c(C)c3c1c2[C@@H](NC(=O)CO)CC3 [Preparation Example 9, DXd, reference compound]",IC50,Colo205,294 nM
same,IC50,NCI-N87,13.9 nM
Codrituzumab,disease progression (in words),advanced liver cancer [1],showed a trend of delayed disease progression
same,survival (in words),advanced liver cancer [2],did not demonstrate a statistically significant improvement in survival
